Here are results for 19 compounds from PubChem BioAssay AID330 (DTP/NCI, 2004).

The test system of this experiment is P388 leukemia ip, CD2F1 mice, survival T/C. Kind of experiment: NCI In Vivo Anticancer Drug Screen. Data for tumor model P388 Leukemia (intraperitoneal) in CD2F1 (CDF1) mice. The conditions noted are these: endpoint: median survival time, higher = longer survival. A digest of the protocol: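 Mice carrying the transplanted tumor received test compound or vehicle. Survival was recorded in each group, and the value is the treated-group measurement divided by that of the vehicle-treated control group.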

[1] abbreviates: dose: 50.0 mg/kg/injection, schedule: Q01DX005 (ip), vehicle: Klucel (hydroxypropylcellulose) (HPC).
The mark [2] stands for this setting: dose: 100.0 mg/kg/injection, schedule: Q01DX005 (ip), vehicle: Klucel (hydroxypropylcellulose) (HPC).
[3] abbreviates: dose: 200.0 mg/kg/injection, schedule: Q01DX005 (ip), vehicle: Klucel (hydroxypropylcellulose) (HPC).
Where [4] appears, read: dose: 100.0 mg/kg/injection, schedule: Q04DX002 (ip), vehicle: saline.
[5] abbreviates: dose: 200.0 mg/kg/injection, schedule: Q01DX009 (ip), vehicle: saline with Tween-80.
[6] abbreviates: dose: 50.0 mg/kg/injection, schedule: Q01DX009 (ip), vehicle: saline with Tween-80.
[7] abbreviates: dose: 100.0 mg/kg/injection, schedule: Q01DX009 (ip), vehicle: saline with Tween-80.

Molecules are shown by their SMILES. Values joined by “and” are separate entries in the source; they are usually repeats but may differ in a detail not shown here. Identical values can stand only once. Toxic doses and inconclusive results are not listed.

On to `CC(C)N1CC(CCN2CCOCC2)C(c2ccccc2)(C2CCCC2)C1=O` (centres undefined), for which the T/C (dose: 50.0 mg/kg/injection, schedule: Q01DX009 (ip), vehicle: Klucel (hydroxypropylcellulose) (HPC)) was 106 % of control; the T/C (dose: 100.0 mg/kg/injection, schedule: Q01DX009 (ip), vehicle: Klucel (hydroxypropylcellulose) (HPC)) is 101 % of control; the T/C (dose: 200.0 mg/kg/injection, schedule: Q01DX009 (ip), vehicle: Klucel (hydroxypropylcellulose) (HPC)) was 108 % of control.
`O=S12(OC(C(F)(F)F)(C(F)(F)F)c3ccccc31)OC(C(F)(F)F)(C(F)(F)F)c1ccccc12`: the T/C is, setting by setting: under setting [1], 111 % of control; under setting [2], 103 % of control; under setting [3], 100 % of control.
With `N#Cc1cc2cccn2c2c1cnn2-c1ccccc1`, the T/C (dose: 60.0 mg/kg/injection, schedule: Q01DX005 (ip), vehicle: saline with Tween-80) was 105 % of control; the T/C (dose: 120.0 mg/kg/injection, schedule: Q01DX005 (ip), vehicle: saline with Tween-80) was 98 % of control; the T/C (dose: 240.0 mg/kg/injection, schedule: Q01DX005 (ip), vehicle: saline with Tween-80) is 89 % of control.
Consider `CC1=CCCC(C)(O)C2CC(CCC3(C)OC3CC1)C(C)C(=O)O2` (centres undefined), for which the T/C (dose: 7.5 mg/kg/injection, schedule: Q01DX009 (ip), vehicle: Klucel (hydroxypropylcellulose) (HPC)) was 108 % of control; the T/C (dose: 15.0 mg/kg/injection, schedule: Q01DX009 (ip), vehicle: Klucel (hydroxypropylcellulose) (HPC)) was 103 % of control; the T/C (dose: 30.0 mg/kg/injection, schedule: Q01DX009 (ip), vehicle: Klucel (hydroxypropylcellulose) (HPC)) is 89 % of control; the T/C (dose: 60.0 mg/kg/injection, schedule: Q01DX009 (ip), vehicle: Klucel (hydroxypropylcellulose) (HPC)) was 91 % of control.
`CSc1ncnc2c1c1c(N)ncnc1n2C1OC(CO)C(O)C1O` (centres undefined): the T/C was 97 % of control (dose: 25.0 mg/kg/injection, schedule: Q01DX005 (ip), vehicle: other); 97 % of control (dose: 50.0 mg/kg/injection, schedule: Q01DX005 (ip), vehicle: other); 109 % of control (dose: 100.0 mg/kg/injection, schedule: Q01DX005 (ip), vehicle: other); 105 % of control (dose: 200.0 mg/kg/injection, schedule: Q01DX005 (ip), vehicle: other).
As to `O=C1OC(=O)c2c(Br)c(Br)c(Br)c(Br)c21`, the T/C by setting is: (dose: 100.0 mg/kg/injection, schedule: Q04DX003 (ip), vehicle: saline) 100 % of control; (dose: 200.0 mg/kg/injection, schedule: Q04DX003 (ip), vehicle: saline) 100 % of control; (dose: 400.0 mg/kg/injection, schedule: Q04DX003 (ip), vehicle: saline) 104 % of control.
Turning to `C=C(C)C1CC(=O)C2(C)OC2C1` (centres undefined), the T/C under setting [4] was 101 % of control; the T/C (dose: 200.0 mg/kg/injection, schedule: Q04DX002 (ip), vehicle: saline) is 100 % of control; the T/C (dose: 400.0 mg/kg/injection, schedule: Q04DX002 (ip), vehicle: saline) was 97 % of control.
With `Cc1nc2c([N+](=O)[O-])cc(C(=O)O)cc2[nH]1`, the T/C is 100 % of control (dose: 60.0 mg/kg/injection, schedule: Q01DX005 (ip), vehicle: saline); 97 % of control (dose: 120.0 mg/kg/injection, schedule: Q01DX005 (ip), vehicle: saline); 87 % of control (dose: 240.0 mg/kg/injection, schedule: Q01DX005 (ip), vehicle: saline).
With `CC1C2=C(CCCC2=O)O/C1=N\O` (centres undefined), the T/C is 96 % of control (dose: 100.0 mg/kg/injection, schedule: Q04DX003 (ip), vehicle: Klucel (hydroxypropylcellulose) (HPC)); 90 % of control (dose: 200.0 mg/kg/injection, schedule: Q04DX003 (ip), vehicle: Klucel (hydroxypropylcellulose) (HPC)); 93 % of control (dose: 400.0 mg/kg/injection, schedule: Q04DX003 (ip), vehicle: Klucel (hydroxypropylcellulose) (HPC)).
Regarding `Fc1c(F)c(C(F)(F)F)c(F)c(F)c1-n1nnc(-c2ccccc2)n1`, the T/C under setting [1] is 99 % of control, the T/C under setting [2] is 96 % of control and the T/C under setting [3] is 100 % of control.
With `CC(O)C(NC(=O)OCC1c2ccccc2-c2ccccc21)C(=O)O` (centres undefined), the T/C reads like this: under setting [1], 104 % of control; under setting [2], 100 % of control; under setting [3], 107 % of control.
Consider `Oc1nc(-c2ccccc2)sc1-c1ccc(Cl)cc1`, for which the T/C runs as follows: (dose: 12.5 mg/kg/injection, schedule: Q01DX009 (ip), vehicle: saline with Tween-80) 93 % of control; (dose: 25.0 mg/kg/injection, schedule: Q01DX009 (ip), vehicle: saline with Tween-80) 86 % of control; under setting [5], 98 % of control.
Turning to `CCOC(=O)c1c(Cl)c(Cl)c(C(=O)OCC)c(Cl)c1Cl`, the T/C reads like this: (dose: 100.0 mg/kg/injection, schedule: Q04DX003 (ip), vehicle: saline sonified) 100 % of control; (dose: 200.0 mg/kg/injection, schedule: Q04DX003 (ip), vehicle: saline sonified) 100 % of control; (dose: 400.0 mg/kg/injection, schedule: Q04DX003 (ip), vehicle: saline sonified) 100 % of control.
In the case of `CN(C)CCNc1cccc2sc3ccc(O)cc3c(=O)c12`, the T/C (dose: 12.5 mg/kg/injection, schedule: Q01DX005 (ip), vehicle: saline with Tween-80) is 113 % of control; the T/C (dose: 25.0 mg/kg/injection, schedule: Q01DX005 (ip), vehicle: saline with Tween-80) is 115 % of control and 123 % of control; the T/C (dose: 50.0 mg/kg/injection, schedule: Q01DX005 (ip), vehicle: saline with Tween-80) was 123 % of control and 124 % of control.
In the case of `CCNCC1COc2cccc(OCC)c2O1` (centres undefined), the T/C is 104 % of control (dose: 25.0 mg/kg/injection, schedule: Q04DX002 (ip), vehicle: saline); 101 % of control (dose: 50.0 mg/kg/injection, schedule: Q04DX002 (ip), vehicle: saline); 99 % of control and 108 % of control under setting [4].
Take `CC[n+]1ccc(Nc2ccc(NC(=O)c3ccc(Nc4cc[n+](CC)c5ccc([N+](=O)[O-])cc45)cc3)cc2)cc1`: the T/C (dose: 11.0 mg/kg/injection, schedule: Q01DX009 (ip), vehicle: Klucel (hydroxypropylcellulose) (HPC)) is 162 % of control and 200 % of control; the T/C (dose: 16.0 mg/kg/injection, schedule: Q01DX009 (ip), vehicle: Klucel (hydroxypropylcellulose) (HPC)) was 215 % of control; the T/C (dose: 16.5 mg/kg/injection, schedule: Q01DX009 (ip), vehicle: Klucel (hydroxypropylcellulose) (HPC)) was 226 % of control; the T/C (dose: 22.0 mg/kg/injection, schedule: Q04DX003 (ip), vehicle: saline) was 175 % of control; the T/C (dose: 24.0 mg/kg/injection, schedule: Q01DX009 (ip), vehicle: Klucel (hydroxypropylcellulose) (HPC)) was 200 % of control; the T/C (dose: 25.0 mg/kg/injection, schedule: Q04DX003 (ip), vehicle: saline) was 154 % of control. Also, the T/C (dose: 33.0 mg/kg/injection, schedule: Q04DX003 (ip), vehicle: saline) is 175 % of control and the T/C (dose: 50.0 mg/kg/injection, schedule: Q04DX003 (ip), vehicle: saline) was 180 % of control.
With `c1ccc2cc3c(ccc4ccccc43)cc2c1`, the T/C by setting is: (dose: 25.0 mg/kg/injection, schedule: Q04DX003 (ip), vehicle: other) 99 % of control; under setting [6], 100 % of control; (dose: 50.0 mg/kg/injection, schedule: Q04DX003 (ip), vehicle: other) 104 % of control; under setting [7], 97 % of control; (dose: 100.0 mg/kg/injection, schedule: Q04DX003 (ip), vehicle: other) 99 % of control; under setting [5], 103 % of control. Also, the T/C by setting is: (dose: 200.0 mg/kg/injection, schedule: Q04DX003 (ip), vehicle: other) 96 % of control; (dose: 400.0 mg/kg/injection, schedule: Q04DX003 (ip), vehicle: other) 96 % of control.
With `Cc1ccc(NC(=O)Nc2ccccc2C(N)=O)cc1`, the T/C is 95 % of control (dose: 100.0 mg/kg/injection, schedule: Q04DX003 (ip), vehicle: saline with Tween-80); 95 % of control (dose: 200.0 mg/kg/injection, schedule: Q04DX003 (ip), vehicle: saline with Tween-80); 90 % of control (dose: 400.0 mg/kg/injection, schedule: Q04DX003 (ip), vehicle: saline with Tween-80).
For `Cc1ccccc1CS`, the T/C reads like this: under setting [6], 113 % of control; under setting [7], 113 % of control; under setting [5], 113 % of control.
